Several values for one entry are separate records, joined by “and”; a condition that tells them apart may be missing. Equal values may be shown once. Inconclusive results and toxic doses are left out.

The record followed here is PubChem BioAssay AID256 (DTP/NCI, 2004).

This assay deals with CD2F1 mice, L1210 leukemia ip, survival T/C. Put plainly: NCI In Vivo Anticancer Drug Screen. Data for tumor model L1210 Leukemia (intraperitoneal) in CD2F1 (CDF1) mice. The settings on record: higher = longer survival. A digest of the protocol:
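Implant tumor; dose compound or vehicle; measure endpoint in both groups; report treated divided by control.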

Where [1] appears, read: endpoint: mean survival time, dose: 100.0 mg/kg/injection, schedule: Q01DX001 (ip), vehicle: saline.
[2] abbreviates: endpoint: mean survival time, dose: 200.0 mg/kg/injection, schedule: Q01DX001 (ip), vehicle: saline.
The mark [3] stands for this setting: endpoint: mean survival time, dose: 100.0 mg/kg/injection, schedule: Q04DX003 (ip), vehicle: saline with Tween-80.
Where [4] appears, read: endpoint: mean survival time, dose: 200.0 mg/kg/injection, schedule: Q04DX003 (ip), vehicle: saline with Tween-80.
Where [5] appears, read: endpoint: mean survival time, dose: 400.0 mg/kg/injection, schedule: Q04DX003 (ip), vehicle: saline with Tween-80.
The mark [6] stands for this setting: endpoint: mean survival time, dose: 100.0 mg/kg/injection, schedule: Q01DX009 (ip), vehicle: saline with Tween-80.

Turning to `COc1ccc2oc(-c3ccc(Cl)cc3)c(N3CCN(C)CC3)c2c1`, the T/C is, setting by setting: (endpoint: median survival time, dose: 15.0 mg/kg/injection, schedule: Q01DX005 (ip), vehicle: saline) 104 % of control; (endpoint: median survival time, dose: 30.0 mg/kg/injection, schedule: Q01DX005 (ip), vehicle: saline) 103 % of control; (endpoint: median survival time, dose: 60.0 mg/kg/injection, schedule: Q01DX005 (ip), vehicle: saline) 100 % of control; (endpoint: median survival time, dose: 120.0 mg/kg/injection, schedule: Q01DX005 (ip), vehicle: saline) 107 % of control; (endpoint: median survival time, dose: 240.0 mg/kg/injection, schedule: Q01DX005 (ip), vehicle: saline) 119 % of control.
Regarding `O=C(O)c1[nH]c(=O)[nH]c(=O)c1F`, the T/C is 101 % of control and 109 % of control (endpoint: mean survival time, dose: 1.25 mg/kg/injection, schedule: Q01DX009 (ip), vehicle: saline); 119 % of control (endpoint: mean survival time, dose: 2.5 mg/kg/injection, schedule: Q01DX007 (ip), vehicle: Klucel (hydroxypropylcellulose) (HPC)); 123 % of control (endpoint: mean survival time, dose: 2.5 mg/kg/injection, schedule: Q01DX009 (ip), vehicle: saline); 110 % of control (endpoint: mean survival time, dose: 2.5 mg/kg/injection, schedule: Q03DX003 (ip), vehicle: Klucel (hydroxypropylcellulose) (HPC)); 103 % of control (endpoint: mean survival time, dose: 2.5 mg/kg/injection, schedule: Q04DX003 (ip), vehicle: Klucel (hydroxypropylcellulose) (HPC)); 165 % of control (endpoint: mean survival time, dose: 5.0 mg/kg/injection, schedule: Q01DX007 (ip), vehicle: Klucel (hydroxypropylcellulose) (HPC)). For the same molecule, the T/C (endpoint: mean survival time, dose: 5.0 mg/kg/injection, schedule: Q01DX009 (ip), vehicle: saline) was 168 % of control; the T/C (endpoint: mean survival time, dose: 5.0 mg/kg/injection, schedule: Q03DX003 (ip), vehicle: Klucel (hydroxypropylcellulose) (HPC)) was 122 % of control; the T/C (endpoint: mean survival time, dose: 5.0 mg/kg/injection, schedule: Q04DX003 (ip), vehicle: Klucel (hydroxypropylcellulose) (HPC)) was 112 % of control; the T/C (endpoint: mean survival time, dose: 10.0 mg/kg/injection, schedule: Q01DX007 (ip), vehicle: Klucel (hydroxypropylcellulose) (HPC)) is 119 % of control; the T/C (endpoint: mean survival time, dose: 10.0 mg/kg/injection, schedule: Q04DX003 (ip), vehicle: Klucel (hydroxypropylcellulose) (HPC)) was 117 % of control.
As to `COc1cccc(/C=N/[N+](C)(C)C)c1O`, the T/C is 107 % of control (endpoint: mean survival time, dose: 50.0 mg/kg/injection, schedule: Q01DX001 (ip), vehicle: saline); 101 % of control under setting [1]; 97 % of control under setting [2].
On to `CCO/C=N/NC(=O)CNC(=O)C=[N+]=[N-]`, for which the T/C reads like this: under setting [3], 108 % of control; under setting [4], 103 % of control; under setting [5], 108 % of control.
On to `NC(=O)c1ccc[n+](Cc2c(Cl)cccc2Cl)c1`, for which the T/C by setting is: under setting [3], 105 % of control; (endpoint: median survival time, dose: 0.75 mg/kg/injection, schedule: Q01DX009 (ip), vehicle: saline) 102 % of control; (endpoint: median survival time, dose: 1.5 mg/kg/injection, schedule: Q01DX009 (ip), vehicle: saline) 101 % of control; (endpoint: median survival time, dose: 3.0 mg/kg/injection, schedule: Q01DX009 (ip), vehicle: saline) 109 % of control; (endpoint: median survival time, dose: 6.0 mg/kg/injection, schedule: Q01DX009 (ip), vehicle: saline) 102 % of control; (endpoint: median survival time, dose: 12.0 mg/kg/injection, schedule: Q01DX009 (ip), vehicle: saline) 102 % of control.
As for `C#CCOC(=O)Nc1cccc(OC(=O)NC)c1`, the T/C is, setting by setting: under setting [3], 99 % of control; under setting [4], 101 % of control; under setting [5], 97 % of control.
As for `Cc1ccc(C)n1-c1ccccc1`, the T/C is 107 % of control (endpoint: mean survival time, dose: 100.0 mg/kg/injection, schedule: Q01DX009 (ip), vehicle: saline + alcohol); 103 % of control under setting [3]; 105 % of control (endpoint: mean survival time, dose: 200.0 mg/kg/injection, schedule: Q01DX009 (ip), vehicle: saline + alcohol); 106 % of control under setting [4]; 100 % of control (endpoint: mean survival time, dose: 400.0 mg/kg/injection, schedule: Q01DX009 (ip), vehicle: saline + alcohol); 95 % of control under setting [5].
`O=P1(OCCBr)NCCCO1` (stereo not drawn): the T/C is, setting by setting: (endpoint: mean survival time, dose: 62.5 mg/kg/injection, schedule: Q01DX001 (ip), vehicle: water) 95 % of control; (endpoint: mean survival time, dose: 125.0 mg/kg/injection, schedule: Q01DX001 (ip), vehicle: water) 101 % of control; (endpoint: mean survival time, dose: 250.0 mg/kg/injection, schedule: Q01DX001 (ip), vehicle: water) 104 % of control; (endpoint: mean survival time, dose: 500.0 mg/kg/injection, schedule: Q01DX001 (ip), vehicle: water) 98 % of control; (endpoint: mean survival time, dose: 750.0 mg/kg/injection, schedule: Q01DX001 (ip), vehicle: water) 101 % of control.
With `CCCCC(NC(=O)CN)C(=O)O` (stereo not drawn), the T/C was 111 % of control (endpoint: mean survival time, dose: 75.0 mg/kg/injection, schedule: Q04DX002 (ip), vehicle: saline with Tween-80); 91 % of control (endpoint: mean survival time, dose: 150.0 mg/kg/injection, schedule: Q04DX002 (ip), vehicle: saline with Tween-80); 106 % of control (endpoint: mean survival time, dose: 300.0 mg/kg/injection, schedule: Q04DX002 (ip), vehicle: saline with Tween-80).
`OCC1c2ccc(Cl)cc2Nc2ccc(Cl)cc21` (stereo not drawn): the T/C is 93 % of control under setting [3], 89 % of control under setting [4] and 91 % of control under setting [5].
For the molecule `COC(=C\c1ccccc1)/C(=N/Nc1ccc([N+](=O)[O-])cc1[N+](=O)[O-])c1ccccc1`, the T/C was 101 % of control (endpoint: mean survival time, dose: 100.0 mg/kg/injection, schedule: Q01DX001 (ip), vehicle: saline with Tween-80); 109 % of control (endpoint: mean survival time, dose: 200.0 mg/kg/injection, schedule: Q01DX001 (ip), vehicle: saline with Tween-80); 109 % of control (endpoint: mean survival time, dose: 400.0 mg/kg/injection, schedule: Q01DX001 (ip), vehicle: saline with Tween-80).
As to `Cc1csc(NC(=O)c2ccc(C(=O)Nc3nc(C)cs3)cc2)n1`, the T/C is, setting by setting: under setting [1], 95 % of control; under setting [2], 95 % of control; (endpoint: mean survival time, dose: 400.0 mg/kg/injection, schedule: Q01DX001 (ip), vehicle: saline) 92 % of control.
In the case of `O=C1N[C@H]2[C@H](O)[C@H](O)[C@@H](O)[C@H](O)[C@@H]2c2cc3c(c(O)c21)OCO3`, the T/C (endpoint: median survival time, dose: 0.38 mg/kg/injection, schedule: Q01DX009 (ip), vehicle: saline + alcohol) was 120 % of control; the T/C (endpoint: median survival time, dose: 0.75 mg/kg/injection, schedule: Q01DX009 (ip), vehicle: saline + alcohol) was 122 % of control; the T/C (endpoint: median survival time, dose: 1.5 mg/kg/injection, schedule: Q01DX009 (ip), vehicle: saline + alcohol) is 121 % of control.
Regarding `CC1=C(C)C(=O)O[C@@H]([C@](C)(O)[C@]2(O)CC[C@@]3(O)[C@@H]4C[C@H]5O[C@]56CC=CC(=O)[C@]6(C)[C@H]4CC[C@]23C)C1`, the T/C by setting is: (endpoint: mean survival time, dose: 3.12 mg/kg/injection, schedule: Q01DX009 (ip), vehicle: saline with Tween-80) 104 % of control; (endpoint: mean survival time, dose: 3.12 mg/kg/injection, schedule: Q01DX009 (ip), vehicle: saline) 112 % of control; (endpoint: mean survival time, dose: 6.25 mg/kg/injection, schedule: Q01DX009 (ip), vehicle: saline with Tween-80) 105 % of control; (endpoint: mean survival time, dose: 6.25 mg/kg/injection, schedule: Q01DX009 (ip), vehicle: saline) 123 % of control; (endpoint: mean survival time, dose: 12.5 mg/kg/injection, schedule: Q01DX009 (ip), vehicle: saline) 112 % of control; (endpoint: mean survival time, dose: 25.0 mg/kg/injection, schedule: Q01DX009 (ip), vehicle: saline with Tween-80) 107 % of control. The T/C runs as follows: (endpoint: mean survival time, dose: 25.0 mg/kg/injection, schedule: Q01DX009 (ip), vehicle: saline) 110 % of control; (endpoint: mean survival time, dose: 50.0 mg/kg/injection, schedule: Q01DX009 (ip), vehicle: saline with Tween-80) 115 % of control; (endpoint: mean survival time, dose: 50.0 mg/kg/injection, schedule: Q01DX009 (ip), vehicle: saline) 98 % of control; under setting [6], 107 % of control; (endpoint: mean survival time, dose: 100.0 mg/kg/injection, schedule: Q01DX009 (ip), vehicle: saline) 93 % of control.
In the case of `CCCCCCCCCCCCCCCC(=O)Oc1ccc(/C(CC)=C(/CC)c2ccc(OC(=O)CCCCCCCCCCCCCCC)cc2)cc1`, the T/C under setting [6] was 91 % of control.
In the case of `CC(C)(C)OC(=O)CCC(NC(=O)OCc1ccccc1)C(=O)O` (stereo not drawn), the T/C by setting is: (endpoint: mean survival time, dose: 50.0 mg/kg/injection, schedule: Q04DX003 (ip), vehicle: saline with Tween-80) 93 % of control; (endpoint: mean survival time, dose: 100.0 mg/kg/injection, schedule: Q01DX001 (ip), vehicle: saline sonified) 103 % of control; under setting [3], 94 % of control; (endpoint: mean survival time, dose: 200.0 mg/kg/injection, schedule: Q01DX001 (ip), vehicle: saline sonified) 109 % of control.
